Laboratory results published in paper PMC6218115, “In Vitro Potency and Preclinical Pharmacokinetic Comparison of All-D-Enantiomeric Peptides Developed for the Treatment of Alzheimer’s Disease” (Journal of Alzheimer's Disease, 2018).
Non-standard residues stand in square brackets, D forms with d. Residues, ends and D or L forms follow the SMILES beside them.

Assays:
[1] = Pharmacokinetic concentration-time profiles and parameters after i.v. and p.o. administration; type: in vivo, C57Bl/6N mice; conditions: mice; for Cmax, brain / Cmax, plasma: 3H-label LSC; for Cmax, plasma: 3 mice/time point; for AUC %ID,0 - 1440, plasma: non-compartmental analysis
Protocol: The pharmacokinetic profiles were investigated in 180 male C57Bl/6N mice aged 13-14 weeks, weighing about 27.4 g in average. Mice were ordered at Charles River (Germany) and housed at least one week under standard housing conditions (12/12 h light-dark cycle, approximately 22°C room temperature and 54% humidity; water and food available ad libitum) in the animal facility of the Forschungszentrum Jülich GmbH before the experiments were carried out. All animal experiments were approved by the Animal Protection Committee of the local government according to the German Protection of Animals Act (LANUV, North-Rhine-Westphalia, Germany, Az.84-02.04.2017.A029).
To determine the concentration-time profiles of ANK6, tANK6, and cANK6r in murine brain, plasma, liver, kidney, and cerebrospinal fluid (CSF) after i.v. and p.o. administration, mixed solutions of non-labelled and ^3H-labelled peptides were prepared. The administered solutions contained 1 mg/mL (i.v.) or 3 mg/mL (p.o.) of the respective D-peptide including small amounts of ^3H-labelled peptides (0.54μg/mL ^3H-ANK6, 1.79μg/mL ^3H-tANK6, or 0.98μg/mL ^3H-cANK6r). Doses were administered by body weight: i.v. 3.3 mg/kg, ANK6 & tANK6 p.o. 10 mg/kg, cANK6r p.o. 15 mg/kg. Three male C57Bl/6N mice aged 13-14 weeks were investigated per time point whereby individual outliers were excluded from further evaluation. Organs were harvested as follows: i.v. 5, 10, 30, 60, 120, 240, 360, 1080, 1440 min; p.o.: 10, 20, 30, 60, 120, 240, 360, 1080, 1440 min.
Animals whose CSF was not extracted were anesthetized with isoflurane (cp-pharma, Germany) inhalation approximately 2 min before each organ harvesting time point. Afterwards, blood was taken by cardiac puncture and the heparinized blood was centrifuged (3000 g, 5 min, 4°C) to get plasma. The plasma in the supernatant was separated and 1:1 diluted with PBS. The right brain hemisphere, 200 mg of the big liver lobe, and the right kidney were removed, weighed, and homogenized in 500μL PBS (Precellys Ceramic Kit 1.4 mm, Precellys 24, Bertin technologies SAS, France). 100μL of the diluted plasma, the homogenized brain, liver, or kidney (in triplicates), or 1–5μL (exactly determined) of the extracted CSF (extraction procedure see below, single determination) were mixed with 10 mL scintillation cocktail (Ultima Gold XR, PerkinElmer, USA). The mixture was incubated overnight (100 rpm, room temperature).
Animals whose CSF was extracted (organ harvesting time points: 60 min, 240 min, 1440 min) were i.p. anesthetized with ketamine/medetomidine approximately 20 min before each sampling time point. When the mouse was in deep narcosis, the cisterna magna was laid free and punctuated with a small capillary to extract about 5μL of CSF as described before. Afterwards, cardiac puncture, organ extractions, and sample preparations were performed as described above.
Quantification of the amount of ^3H-labelled D-peptides was performed with a LSC and the results (dpm/sample) were converted into mg/mL or % injected dose (% ID)/mL for plasma and for CSF, or in mg/g or % ID/g for brain, liver, and kidney as described before. Total peptide concentrations in the samples were back-calculated from the measured ^3H-labelled peptides’ radioactivity as described before [[20, 25, 26, 29]].
The determined peptide concentrations were plotted over time to allow for comparison of all peptides’ uptake into brain, plasma, liver, kidney, and CSF. Concentrations at 0 min were set to 0 % ID/mL or 0 % ID/g except for plasma concentrations after i.v. administration. There, concentrations were linearly back-extrapolated based on the first two measured time points (5 min, 10 min).
To calculate the pharmacokinetic parameters of ANK6, tANK6, and cANK6r for plasma and brain, concentration-time profiles were analyzed. […]

[2] = Blood-brain barrier values (logBB, Kin, Vi, PS); type: in vivo, C57Bl/6N mice; conditions: mice
Protocol: To allow for direct comparison with other peptides, four universally applied BBB parameters were determined: the blood-brain equilibrium distribution (logBB), the […] influx rate constant (Kin), the initial distribution volume in brain (Vi), and the permeability surface-area product (PS). Based on data of the concentration-time profiles and pharmacokinetic parameters after i.v. administration, the BBB parameters were calculated with the help of the formulas listed in Table 2. Graphical determination of Kin and Vi was conducted by plotting the brain concentration to plasma concentration ratio at certain time points (Cb (t)/Cp (t) [mL/g]) on the y-axis against the exposure time (AUCp (t)/Cp (t) [min]) on the x-axis. The linear range for Kin and Vi determination was between 0 and 240 min for ANK6 and cANK6r (R^2: 0.9970, 0.9996) and between 0 and 1440 min for tANK6 (R^2: 0.9758). PS was calculated on the basis of a murine cerebral blood flow (CBF) of 1.07 mL/(g*min).

[3] = Cell viability assay (MTT), Aβ1-42-induced cytotoxicity; type: cell-based, rat; conditions: PC12 cells, MTT, 1 μM oligomeric Aβ1-42, peptide 0.008-15 μM, overnight 37°C, quintuplicates, logistic fit; read-out: IC50, reduction of Aβ1-42-induced cytotoxicity (cell viability)
Protocol: The cells (10,000 cells/well) were incubated on collagen coated 96 well plates (Gibco, Life Technologies, # A11428-03) for growth in adherent cell culture (24 h, 37°C). Oligomeric Aβ was generated by incubating monomeric Aβ1 - 42 in sodium phosphate buffer (10 mM Na2HPO4/NaH2PO4, pH 7.4) at 21°C and 600 rpm agitation for 4.5 h. […] Absorbance readout was detected with a Polarstar Optima plate reader (BMG, Germany) at 570 and 660 nm. The relative cell viability [%] was calculated by normalizing the absorbance readout to the positive control (PC12 cells incubated with buffer). The IC50 value was determined by plotting the relative cell viability [%] against the respective D-peptides' concentrations. Datasets were fitted by nonlinear regression (logistic fit; OriginPro 9.0G).

[4] = p.o. 10 mg/kg (ANK6, tANK6) or 15 mg/kg (cANK6r)

Structure (SMILES): CC[C@@H](C)[C@@H](NC(=O)[C@@H](CCCNC(=N)N)NC(=O)[C@@H](CCCCN)NC(=O)[C@H](N)CCCNC(=N)N)C(=O)N[C@H](CCCNC(=N)N)C(=O)N[C@H](CC(C)C)C(=O)N[C@@H](C(=O)N[C@@H](C(=O)N[C@H](CCCCN)C(=O)N[C@H](CCCCN)C(=O)N[C@H](CCCCN)C(=O)N[C@H](CCCNC(=N)N)C(N)=O)[C@H](C)O)C(C)C [ANK6] (H-[dR][dK][dR][dI][dR][dL][dV][dT][dK][dK][dK][dR]-NH2; N-terminus assumed)
- peptide concentration detected in the blood ([1]; 4 h after single oral administration of 10 mg/kg): 0.01 µM
- CSF levels ([1]; about 60 min after both types of administration (i.v., p.o.)): Extraordinary high CSF levels
- AUC %ID,0 - 1440, brain ([1]; i.v. 3.3 mg/kg): 35.8 min*% ID/g
- CL, terminal plasma clearance ([1]; i.v. 3.3 mg/kg): 32.0 mL/min/kg
- MRT, plasma ([1]; i.v. 3.3 mg/kg): 3 h
- t1/2, terminal half-life, plasma ([1]; i.v. 3.3 mg/kg): 15 h
- tmax, brain ([1]; i.v. 3.3 mg/kg): 0.083 h
- tmax, plasma ([1]; i.v. 3.3 mg/kg): 0 h
- λz, terminal elimination rate constant, plasma ([1]; i.v. 3.3 mg/kg): 0.00077 min⁻¹
- Cmax, brain ([1]; i.v. 3.3 mg/kg): 0.07 % ID/g
- Cmax, plasma ([1]; i.v. 3.3 mg/kg, back-extrapolated to 0 min): 3.17 % ID/mL
- AUC %ID,0 - 1440, plasma ([1]; i.v. 3.3 mg/kg): 91.7 min*% ID/mL
- AUC %ID,0 - 1440, brain [1, 4]: 11.0 min*% ID/g
- CL, terminal plasma clearance [1, 4]: 174.5 mL/min/kg
- MRT, plasma [1, 4]: 10 h
- t1/2, terminal half-life, plasma [1, 4]: 22 h
- tmax, brain [1, 4]: 1 h
- tmax, plasma [1, 4]: 2 h
- λz, terminal elimination rate constant, plasma [1, 4]: 0.00054 min⁻¹
- F (AUC %ID), oral bioavailability ([1]; p.o. 10 mg/kg (ANK6, tANK6) or 15 mg/kg (cANK6r) versus i.v. 3.3 mg/kg, plasma AUC %ID): 11.8%
- Cmax, brain [1, 4]: 0.01 % ID/g
- Cmax, plasma [1, 4]: 0.02 % ID/mL
- AUC %ID,0 - 1440, plasma [1, 4]: 10.8 min*% ID/mL
- logBB, blood-brain equilibrium distribution ([2]; after i.v. administration 3.3 mg/kg, log(AUClast,br/AUClast,pl)): –0.401
- PS, permeability surface-area product ([2]; after i.v. administration, CBF 1.07 mL/(g*min)): 0.0003 mL/g/min
- Vin ([2]; after i.v. administration, graphical determination (initial distribution volume in brain)): 0.0575 mL/g
- Kin, unidirectional influx rate constant ([2]; after i.v. administration, graphical determination, linear range 0-240 min (ANK6, cANK6r), 0-1440 min (tANK6)): 0.0003 mL/g/min
- IC50 [3]: 11.2 µM
